Measured values taken from EP0212605A2, “Azolyl-cyclopropyl-ethanol derivatives, processes for their preparation and their use” (HOECHST AKTIENGESELLSCHAFT, priority 1985, dated 1987).

System: Candida albicans
Experiment: Oral and parenteral in vivo efficacy in mice experimentally infected with Candida albicans (survival time)
Parameters: species or system Mäusen (Stamm HOE: NMRKF; SPF 71)
Conditions: for d̄ Tage: mean survival time of 5 mice; for Überlebenszeit in % (Standardpräp.= 100%): relative to Ketoconazol = 100%
Method: Zur Feststellung der oralen und parenteralen Wirksamkeit wurden Gruppen von je 5 18-20 g schweren Mäusen (Stamm HOE: NMRKF; SPF 71) mit 2 . 10^6 Keimen/Tier infiziert.
Die Behandlung der Tiere erfolgte oral bzw. subcutan in 8 gleichen Einzeldosen zu je 30 mg/kg bzw. 10 mg/kg Körpergewicht (-24/-18/-2h/+2/24/30/48/54h).
Neben der mit den erfindungsgemäßen Substanzen I behandelten Gruppe von 5 Tieren wurde zum Vergleich eine Gruppe von ebenfalls 5 Tieren mit der Referenzsubstanz Ketoconazol behandelt. Eine kontrollgruppe von 10 Tieren blieb nach der Infektion unbehandelt.

| SMILES | d̄ Tage (Oral 8x10 mg/kg) | Überlebenszeit in % (Standardpräp.= 100%) (Oral 8x10 mg/kg) | d̄ Tage (Oral 8x30 mg/kg) | Überlebenszeit in % (Standardpräp.= 100%) (Oral 8x30 mg/kg) | d̄ Tage (Subcutan 8x10 mg/kg) | Überlebenszeit in % (Standardpräp.= 100%) (Subcutan 8x10 mg/kg) | d̄ Tage (Subcutan 8x30 mg/kg) | Überlebenszeit in % (Standardpräp.= 100%) (Subcutan 8x30 mg/kg) |
| --- | --- | --- | --- | --- | --- | --- | --- | --- |
| OC(Cn1cncn1)(c1ccc(Cl)cc1Cl)C1CC1c1ccc(Cl)cc1 (single isomer, unassigned) [29 a] | 6,8 Tage | 121,4% | 9,8 Tage | 122,5% | 7,2 Tage | 112,5% | 11,4 Tage | 142,5% |
| OC(Cn1cncn1)(c1ccc(F)cc1)C1CC1c1ccc(Cl)cc1Cl (single isomer, unassigned) [27 b] | 9,2 Tage | 164,3% | 11,6 Tage | 145,0% | 10,4 Tage | 162,5% | 12,6 Tage | 157,5% |
| OC(Cn1cncn1)(c1ccc(Cl)cc1)C1CC1c1ccc(Cl)cc1 (single isomer, unassigned) [34 b] | 11,6 Tage | 207,1% | 13,0 Tage | 162,5% | 11,0 Tage | 171,9% | 8,0 Tage | 100,0% |
| CC(=O)N1CCN(c2ccc(OCC3COC(Cn4ccnc4)(c4ccc(Cl)cc4Cl)O3)cc2)CC1 (centres unmarked) [Ketoconazol, reference compound] | 5,6 Tage | 100,0% | 8,0 Tage | 100,0% | 6,4 Tage | 100,0% | 8,0 Tage | 100,0% |
